Data published in ChEMBL document CHEMBL1140359, “Solid-phase synthesis and anti-infective activity of a combinatorial library based on the natural product anisomycin” (Bioorg Med Chem Lett, 2005).
Values after ≈ are worked out from the molar mass of the structure shown. One block for each compound: values may come before it.

What was measured:
Candida albicans [1] = assay: Percent inhibition against efflux-deficient strain of Candida albicans at 15.5 uM; assay type: functional
Candida albicans [2] = assay: Percent inhibition against RG-1 mutant strain of Candida albicans at 15.5 uM; assay type: functional
HEK293 = assay: Inhibitory concentration required to produce cytotoxicity against HEK293 cells; assay type: functional, cell-based; conditions: Homo sapiens
Staphylococcus aureus [3] = assay: Minimum inhibitory concentration against Staphylococcus aureus; assay type: functional
Staphylococcus aureus [4] = assay: Percent inhibition against MraY/MurG in Staphylococcus aureus cell walls at 25 uM; assay type: functional
Staphylococcus aureus [5] = assay: Percent inhibition against MurPath in Staphylococcus aureus cell walls at the concentration of 25 uM; assay type: functional

Compound: COc1ccc(C[C@@H]2[C@H](OC(=O)NCc3ccccc3F)[C@@H](O)CN2C(=O)c2cc(C(F)(F)F)cc(C(F)(F)F)c2)cc1
inhibition at 15.5 µM (Candida albicans [1]): 87% | inhibition at 15.5 µM (Candida albicans [2]): < 5% | IC50 (HEK293): 10 µM

Compound: CCCOC(=O)N1C[C@H](O)[C@@H](OC(=O)NCc2ccccc2-c2ccccc2)[C@H]1Cc1ccc(OC)cc1
inhibition at 15.5 µM (Candida albicans [1]): 96% | inhibition at 15.5 µM (Candida albicans [2]): 10% | IC50 (HEK293): 9 µM

MIC (Staphylococcus aureus [3]): 16 µg/mL (≈ 22.5 µM)
Compound: COc1ccc(C[C@@H]2[C@H](OC(=O)NC3CCN(Cc4ccccc4)CC3)[C@@H](O)CN2C(=O)c2cc(-c3ccc(Cl)cc3)oc2C(F)(F)F)cc1
inhibition at 25 µM (Staphylococcus aureus [4]): < 5% | IC50 (HEK293): 8 µM | inhibition at 25 µM (Staphylococcus aureus [5]): < 5%

Compound: COc1ccc(C[C@@H]2[C@H](OC(=O)NCc3ccc(F)cc3)[C@@H](O)CN2C(=O)c2cc(C(F)(F)F)cc(C(F)(F)F)c2)cc1
inhibition at 15.5 µM (Candida albicans [1]): 87% | inhibition at 15.5 µM (Candida albicans [2]): < 5% | IC50 (HEK293): 8 µM

Compound: CCOC(=O)N1C[C@H](O)[C@@H](OC(=O)NCc2ccccc2-c2ccccc2)[C@H]1Cc1ccc(OC)cc1
inhibition at 15.5 µM (Candida albicans [1]): 83% | inhibition at 15.5 µM (Candida albicans [2]): 14% | IC50 (HEK293): 22 µM

MIC (Staphylococcus aureus [3]): 32 µg/mL (≈ 51.4 µM)
Compound: COc1ccc(C[C@@H]2[C@H](OC(=O)N3CCN(C)CC3)[C@@H](O)CN2C(=O)c2cc(-c3ccc(Cl)cc3)oc2C(F)(F)F)cc1
inhibition at 25 µM (Staphylococcus aureus [4]): 10% | IC50 (HEK293): 10 µM | inhibition at 25 µM (Staphylococcus aureus [5]): < 5%

MIC (Staphylococcus aureus [3]): 16 µg/mL (≈ 25.8 µM)
Compound: COc1ccc(C[C@@H]2[C@H](OC(=O)N[C@@H]3CCN(Cc4ccccc4)C3)[C@@H](O)CN2C(=O)Nc2ccc(-c3ccccc3)cc2)cc1
inhibition at 25 µM (Staphylococcus aureus [4]): 20% | IC50 (HEK293): 2 µM | inhibition at 25 µM (Staphylococcus aureus [5]): < 5%

Compound: COc1ccc(C[C@@H]2[C@H](OC(=O)NCc3ccccc3)[C@@H](O)CN2C(=O)c2cc(C(F)(F)F)cc(C(F)(F)F)c2)cc1
inhibition at 15.5 µM (Candida albicans [1]): 87% | inhibition at 15.5 µM (Candida albicans [2]): 8% | IC50 (HEK293): 16 µM

Compound: COc1ccc(C[C@@H]2[C@H](OC(=O)NCc3ccccc3-c3ccccc3)[C@@H](O)CN2C(=O)OCC(C)C)cc1
inhibition at 15.5 µM (Candida albicans [1]): 82% | inhibition at 15.5 µM (Candida albicans [2]): < 5% | IC50 (HEK293): 11 µM

Compound: COc1ccc(C[C@H]2NC[C@H](O)[C@H]2OC(C)=O)cc1 [ANISOMYCIN]
inhibition at 15.5 µM (Candida albicans [1]): > 99% | MIC (Staphylococcus aureus [3]): > 32 µg/mL | IC50 (HEK293): 0.02 µM
